Source: patent US20230364121A1 (priority 2020, published 2023)
Where “and” joins values, the source holds several entries; their conditions need not be identical. Identical values can stand only once.

Key:
[1] = molecular target: T1, SARS-CoV-2 ExoN (nsp14/nsp10) (Severe acute respiratory syndrome coronavirus 2, UniProt P0DTD1); type: biochemical
T1 construct: 50 nM nsp14/nsp10 (1:5) were added for time-course reactions

[2] = tested on: SARS-CoV-2 viral genome; type: cell-based

| SMILES | resistance to ExoN mediated excision relative to an unmodified RNA 3′-end [1] [fold] | Mean number of mutations, transition A > G [2] | Mean number of mutations, transition C > T [2] | Mean number of mutations, transition G > A [2] | Mean number of mutations, transition T > C [2] | Number of Mutations, transition A > G [2] | Number of Mutations, transition C > T [2] | Number of Mutations, transition G > A [2] | Number of Mutations, transition T > C [2] | number of mutations compared to virus control Vc [2] |
| --- | --- | --- | --- | --- | --- | --- | --- | --- | --- | --- |
| C[C@@]1(F)[C@H](O)[C@@H](COP(=O)(O)OP(=O)(O)OP(=O)(O)O)O[C@H]1n1cnc2c(=O)[nH]c(N)nc21 [AT-9010, 2′-fluoro-2′-C-methylguanosine-5′-triphosphate] | ~4.8 |  |  |  |  |  |  |  |  |  |
| CC(C)C(=O)OC[C@H]1O[C@@H](n2ccc(NO)nc2=O)[C@H](O)[C@@H]1O [Molnupiravir, molnupiravir] |  | 842 | 592 | 385 | 910.5 | 813 and 871 | 602 and 582 | 385 | 932 and 889 | significant increase in the number of mutations |
| CC(C)C[C@H](NC(=O)OCc1ccccc1)C(=O)N[C@@H](C[C@@H]1CCNC1=O)C(O)S(=O)(=O)O (stereo partly shown) [GC376] |  |  |  |  |  |  |  |  |  | slight increase of the number of mutations |
| C[C@@]1(F)[C@H](O)[C@@H](COP(=O)(O)OP(=O)(O)OP(=O)(O)O)O[C@H]1n1ccc(=O)[nH]c1=O [STP, 5′-triphosphate 2′-fluoro-2′-C-methyl uridine] | ~1.2 |  |  |  |  |  |  |  |  |  |
| CC(C)C[C@H](NC(=O)OCc1ccccc1)C(=O)N[C@@H](CC1CCNC1=O)C(O)S(=O)(=O)[O-].[Na+] (stereo partly shown) [GC 376] |  | 465.5 | 62 | 14.5 | 532.5 | 545 and 368 | 51 and 73 |  | 662 and 403 |  |
| CNc1nc(N)nc2c1ncn2[C@@H]1O[C@H](COP(=O)(N[C@@H](C)C(=O)OC(C)C)Oc2ccccc2)[C@@H](O)[C@@]1(C)F (stereo partly shown) [Compound 1A] |  | 429 | 24.5 | 6 | 473 | 454 and 404 | 22 and 27 | 7 and 5 | 489 and 457 | did not show an increased number of mutations |
